Measurements taken from ChEMBL document CHEMBL2074431, “The novel anticancer drug KRN5500 interacts with, but is hardly transported by, human P-glycoprotein” (Jpn J Cancer Res, 2000).

Target: ATP-dependent translocase ABCB1 (Homo sapiens, UniProt P08183)
Assay: TP_TRANSPORTER: inhibition of Azidopine photoaffinity labelling (Azidopine: 0.4 uM, KRN5500: 400 uM) in membrane fraction from MDR1-expressing LLC-PK1 cell
Format: functional, cell membranes
Conditions: pig, llc-pk1, 400 µM

Sequence of ATP-dependent translocase ABCB1 (P08183 whole entry): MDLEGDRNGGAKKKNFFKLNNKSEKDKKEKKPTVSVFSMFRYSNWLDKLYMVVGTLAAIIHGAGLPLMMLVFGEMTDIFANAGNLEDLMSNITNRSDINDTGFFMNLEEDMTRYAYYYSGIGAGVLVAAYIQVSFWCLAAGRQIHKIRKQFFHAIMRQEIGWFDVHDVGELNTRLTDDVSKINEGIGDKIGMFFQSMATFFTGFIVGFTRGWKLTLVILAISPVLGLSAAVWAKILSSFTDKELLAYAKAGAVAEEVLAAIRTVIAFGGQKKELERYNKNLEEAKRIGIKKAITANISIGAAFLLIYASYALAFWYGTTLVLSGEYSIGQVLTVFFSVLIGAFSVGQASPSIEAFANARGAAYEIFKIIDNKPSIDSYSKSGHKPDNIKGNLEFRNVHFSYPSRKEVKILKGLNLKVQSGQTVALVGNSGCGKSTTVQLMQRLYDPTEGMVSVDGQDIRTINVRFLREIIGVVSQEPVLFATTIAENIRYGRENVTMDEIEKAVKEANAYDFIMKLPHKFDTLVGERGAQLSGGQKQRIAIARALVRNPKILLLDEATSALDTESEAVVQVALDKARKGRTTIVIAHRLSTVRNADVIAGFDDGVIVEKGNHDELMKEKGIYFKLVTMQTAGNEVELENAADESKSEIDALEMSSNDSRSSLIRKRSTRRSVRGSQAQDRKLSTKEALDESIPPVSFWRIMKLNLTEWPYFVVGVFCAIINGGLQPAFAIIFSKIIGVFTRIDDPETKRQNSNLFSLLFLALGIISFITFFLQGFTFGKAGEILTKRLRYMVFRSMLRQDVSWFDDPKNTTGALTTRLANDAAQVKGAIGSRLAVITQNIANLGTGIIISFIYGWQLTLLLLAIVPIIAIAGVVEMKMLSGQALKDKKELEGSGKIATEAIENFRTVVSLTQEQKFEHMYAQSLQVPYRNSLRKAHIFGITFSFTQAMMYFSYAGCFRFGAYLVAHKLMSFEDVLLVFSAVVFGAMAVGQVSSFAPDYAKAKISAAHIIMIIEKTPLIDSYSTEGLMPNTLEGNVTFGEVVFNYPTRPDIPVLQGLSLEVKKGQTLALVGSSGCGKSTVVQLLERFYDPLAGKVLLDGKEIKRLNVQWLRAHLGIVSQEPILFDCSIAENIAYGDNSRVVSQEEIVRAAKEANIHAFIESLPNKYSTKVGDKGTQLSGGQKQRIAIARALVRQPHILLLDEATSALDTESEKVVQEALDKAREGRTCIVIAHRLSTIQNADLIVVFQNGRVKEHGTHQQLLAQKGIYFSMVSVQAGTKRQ

Activity: inhibitor [+]
Structure (SMILES): CCCCCCCCC/C=C/C=C/C(=O)NCC(=O)N[C@@H]1[C@@H](O)[C@@H](O)[C@@H](Nc2ncnc3[nH]cnc23)O[C@H]1[C@@H](O)CO
